The values below come from ChEMBL document CHEMBL1201862, “PubChem BioAssay data set” (2004).

Test [1] addresses Photoreceptor-specific nuclear receptor (Homo sapiens, UniProt Q9Y5X4). The test is classed as functional.
Test [2] has as its target T1, Heat shock factor protein 1 (Mus musculus, UniProt P38532).
T1 sequence (P38532 whole entry): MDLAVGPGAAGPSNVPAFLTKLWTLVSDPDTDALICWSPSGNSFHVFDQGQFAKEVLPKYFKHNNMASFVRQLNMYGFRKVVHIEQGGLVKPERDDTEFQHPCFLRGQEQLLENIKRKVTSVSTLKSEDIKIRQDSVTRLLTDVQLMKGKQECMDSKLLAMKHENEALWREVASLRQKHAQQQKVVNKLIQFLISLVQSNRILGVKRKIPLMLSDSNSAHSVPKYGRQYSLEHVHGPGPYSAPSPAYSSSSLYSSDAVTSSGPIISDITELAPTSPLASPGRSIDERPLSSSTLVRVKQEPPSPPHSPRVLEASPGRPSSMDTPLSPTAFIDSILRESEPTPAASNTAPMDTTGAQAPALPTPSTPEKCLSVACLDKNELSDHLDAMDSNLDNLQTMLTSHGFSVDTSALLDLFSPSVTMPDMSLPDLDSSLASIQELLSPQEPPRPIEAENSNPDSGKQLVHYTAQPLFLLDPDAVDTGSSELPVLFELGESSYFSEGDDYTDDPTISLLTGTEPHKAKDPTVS
Briefly: HSF1 potentiators in luciferase reporter cells, confirmation, cell-based, NIH3T3, luminescence, dose retest (AID 435004).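 Further: stress induced by proteasome inhibitor MG132 added 30 min after compound; luciferase reporter driven by HSF1 response element in NIH3T3 cells; actives raise luminescence as potentiators of the MG132 stress response.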 It is filed as functional. (In a reporter assay the amount or activity of a reporter protein is the signal.)

Another test addresses T2, Streptokinase A (Streptococcus pyogenes serotype M1, UniProt P10520).
T2 sequence (P10520 whole entry): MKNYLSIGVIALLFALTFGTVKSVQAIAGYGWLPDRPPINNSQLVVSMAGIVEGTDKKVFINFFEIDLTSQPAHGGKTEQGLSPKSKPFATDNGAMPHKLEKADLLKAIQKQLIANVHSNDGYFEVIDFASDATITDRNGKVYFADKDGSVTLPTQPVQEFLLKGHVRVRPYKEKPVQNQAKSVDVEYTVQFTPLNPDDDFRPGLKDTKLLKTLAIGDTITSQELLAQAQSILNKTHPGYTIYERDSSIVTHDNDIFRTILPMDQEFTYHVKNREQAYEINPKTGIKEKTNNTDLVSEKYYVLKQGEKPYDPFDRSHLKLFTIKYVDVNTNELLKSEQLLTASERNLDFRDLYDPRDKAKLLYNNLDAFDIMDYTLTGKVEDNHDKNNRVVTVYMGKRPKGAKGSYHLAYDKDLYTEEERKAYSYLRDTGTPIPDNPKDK
As to the kind of experiment: S. pyogenes streptokinase expression inhibitors, potency, dose response, plasminogen activation absorbance, OD405 (AID 1914).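 Further: secreted streptokinase activity via plasminogen activation per viability signal from cell pellet.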 The test is classed as functional, Streptococcus pyogenes M1 GAS.

In test [3] the target is Peroxisome proliferator-activated receptor gamma/Nuclear receptor corepressor 2 (Homo sapiens, UniProt P37231+Q9Y618). It is filed as functional.
Sequence of Peroxisome proliferator-activated receptor gamma/Nuclear receptor corepressor 2 (P37231 whole entry): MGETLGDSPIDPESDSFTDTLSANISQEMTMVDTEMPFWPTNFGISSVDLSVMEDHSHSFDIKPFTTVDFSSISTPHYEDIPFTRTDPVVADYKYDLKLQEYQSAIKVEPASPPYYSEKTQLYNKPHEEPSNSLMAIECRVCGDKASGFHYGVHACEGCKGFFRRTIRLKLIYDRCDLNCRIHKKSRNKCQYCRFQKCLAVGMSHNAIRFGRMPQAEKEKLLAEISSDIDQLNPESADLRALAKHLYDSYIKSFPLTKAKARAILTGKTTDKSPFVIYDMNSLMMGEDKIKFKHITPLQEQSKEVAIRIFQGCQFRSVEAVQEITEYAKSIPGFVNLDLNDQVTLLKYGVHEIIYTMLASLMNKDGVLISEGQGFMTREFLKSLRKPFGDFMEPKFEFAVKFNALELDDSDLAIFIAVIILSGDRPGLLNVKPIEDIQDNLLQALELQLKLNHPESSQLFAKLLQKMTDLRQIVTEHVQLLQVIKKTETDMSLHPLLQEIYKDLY
Sequence of Peroxisome proliferator-activated receptor gamma/Nuclear receptor corepressor 2 (Q9Y618 whole entry): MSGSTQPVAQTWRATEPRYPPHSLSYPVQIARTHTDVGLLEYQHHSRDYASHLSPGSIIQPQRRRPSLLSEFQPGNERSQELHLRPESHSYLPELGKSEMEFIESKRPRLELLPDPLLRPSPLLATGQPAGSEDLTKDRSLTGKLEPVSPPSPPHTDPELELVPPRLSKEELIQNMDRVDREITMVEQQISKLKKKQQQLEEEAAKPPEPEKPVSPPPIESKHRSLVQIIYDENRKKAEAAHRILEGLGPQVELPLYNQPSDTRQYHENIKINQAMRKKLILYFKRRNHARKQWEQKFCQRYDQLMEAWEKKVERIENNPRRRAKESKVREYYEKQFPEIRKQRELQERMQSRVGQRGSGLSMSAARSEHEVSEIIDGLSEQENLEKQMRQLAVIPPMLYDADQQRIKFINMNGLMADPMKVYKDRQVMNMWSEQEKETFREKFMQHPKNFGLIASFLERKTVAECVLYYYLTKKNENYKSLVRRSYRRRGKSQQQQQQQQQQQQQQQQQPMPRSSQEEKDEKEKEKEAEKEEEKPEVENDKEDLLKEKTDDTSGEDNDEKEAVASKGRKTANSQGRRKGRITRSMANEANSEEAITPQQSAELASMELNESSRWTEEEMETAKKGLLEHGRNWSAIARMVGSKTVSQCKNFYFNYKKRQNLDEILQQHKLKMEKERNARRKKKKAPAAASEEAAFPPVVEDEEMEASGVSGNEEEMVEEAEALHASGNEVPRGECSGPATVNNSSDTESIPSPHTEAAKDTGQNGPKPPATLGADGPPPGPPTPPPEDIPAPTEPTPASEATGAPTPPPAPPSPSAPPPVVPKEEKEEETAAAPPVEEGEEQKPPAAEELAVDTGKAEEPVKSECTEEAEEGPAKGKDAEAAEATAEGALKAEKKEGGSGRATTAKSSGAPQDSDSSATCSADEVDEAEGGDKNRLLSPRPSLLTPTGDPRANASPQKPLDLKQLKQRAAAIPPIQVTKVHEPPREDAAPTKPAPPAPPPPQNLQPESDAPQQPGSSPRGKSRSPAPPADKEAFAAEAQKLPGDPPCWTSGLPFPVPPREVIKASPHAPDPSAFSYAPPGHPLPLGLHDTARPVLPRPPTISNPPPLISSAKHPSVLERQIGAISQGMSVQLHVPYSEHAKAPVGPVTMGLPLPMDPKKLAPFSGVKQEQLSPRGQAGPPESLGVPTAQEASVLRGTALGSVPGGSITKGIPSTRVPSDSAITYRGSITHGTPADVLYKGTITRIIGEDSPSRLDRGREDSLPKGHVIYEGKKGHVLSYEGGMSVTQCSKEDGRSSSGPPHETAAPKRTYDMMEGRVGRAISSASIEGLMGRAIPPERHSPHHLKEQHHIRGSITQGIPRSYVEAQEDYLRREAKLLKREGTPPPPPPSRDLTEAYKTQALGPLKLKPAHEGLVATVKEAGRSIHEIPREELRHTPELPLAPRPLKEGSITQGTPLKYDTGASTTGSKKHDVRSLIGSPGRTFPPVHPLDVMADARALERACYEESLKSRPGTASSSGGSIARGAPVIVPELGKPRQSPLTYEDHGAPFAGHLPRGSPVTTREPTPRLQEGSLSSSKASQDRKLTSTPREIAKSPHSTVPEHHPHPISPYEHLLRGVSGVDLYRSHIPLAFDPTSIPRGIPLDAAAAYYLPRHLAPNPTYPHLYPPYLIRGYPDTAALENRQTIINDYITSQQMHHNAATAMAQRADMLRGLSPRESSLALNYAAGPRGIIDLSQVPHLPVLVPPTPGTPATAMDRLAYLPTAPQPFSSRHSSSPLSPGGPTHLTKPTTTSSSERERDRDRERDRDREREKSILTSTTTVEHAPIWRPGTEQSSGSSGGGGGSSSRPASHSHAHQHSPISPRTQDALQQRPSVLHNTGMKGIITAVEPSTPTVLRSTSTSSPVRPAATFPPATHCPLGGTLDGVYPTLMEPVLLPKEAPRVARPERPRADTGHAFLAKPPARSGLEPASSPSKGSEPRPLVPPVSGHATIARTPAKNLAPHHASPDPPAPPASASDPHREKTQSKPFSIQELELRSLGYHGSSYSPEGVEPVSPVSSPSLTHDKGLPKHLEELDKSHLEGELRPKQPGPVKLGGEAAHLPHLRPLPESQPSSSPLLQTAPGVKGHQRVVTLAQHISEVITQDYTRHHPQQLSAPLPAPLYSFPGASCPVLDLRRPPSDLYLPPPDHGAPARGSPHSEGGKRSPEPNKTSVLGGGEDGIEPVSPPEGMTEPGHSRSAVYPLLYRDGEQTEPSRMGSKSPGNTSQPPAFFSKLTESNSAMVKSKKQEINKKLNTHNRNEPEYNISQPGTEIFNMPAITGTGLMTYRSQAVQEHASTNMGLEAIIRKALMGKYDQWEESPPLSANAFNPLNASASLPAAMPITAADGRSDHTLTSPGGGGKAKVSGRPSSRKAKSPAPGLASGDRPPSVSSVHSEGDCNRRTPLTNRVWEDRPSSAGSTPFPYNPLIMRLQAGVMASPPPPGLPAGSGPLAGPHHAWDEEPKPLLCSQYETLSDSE
In test [4] the target is T3, Alkaline phosphatase, tissue-nonspecific isozyme (Homo sapiens, UniProt P05186).
T3 sequence (P05186 whole entry): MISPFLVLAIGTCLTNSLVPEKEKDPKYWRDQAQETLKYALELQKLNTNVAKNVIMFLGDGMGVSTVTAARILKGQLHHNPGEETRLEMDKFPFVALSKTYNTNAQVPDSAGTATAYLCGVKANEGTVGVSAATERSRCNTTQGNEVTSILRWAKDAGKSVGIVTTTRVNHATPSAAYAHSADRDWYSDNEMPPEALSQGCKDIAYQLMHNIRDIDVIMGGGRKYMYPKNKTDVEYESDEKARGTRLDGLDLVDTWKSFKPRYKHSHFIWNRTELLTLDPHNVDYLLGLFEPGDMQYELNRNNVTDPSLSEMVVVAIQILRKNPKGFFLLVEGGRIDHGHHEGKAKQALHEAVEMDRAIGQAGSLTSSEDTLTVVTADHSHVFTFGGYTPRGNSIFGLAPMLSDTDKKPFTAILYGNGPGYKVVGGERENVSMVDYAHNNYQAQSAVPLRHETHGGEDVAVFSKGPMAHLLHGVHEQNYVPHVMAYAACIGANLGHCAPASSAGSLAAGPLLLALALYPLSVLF

For test [5], the target named is Peroxisome proliferator-activated receptor gamma/Nuclear receptor coactivator 3 (Homo sapiens, UniProt P37231). As to the kind of experiment: TR-FRET dose response biochemical High Throughput Screening assay for agonists of the steroid receptor coactivator 3 (SRC-3) recruitment by the peroxisome proliferator-activated receptor gamma (PPAR gamma): non-selective agonists. [Related pubchem assays: 1301 (Confirmation screen.), 1048 (Primary screen.)]. The test is classed as functional.

The target in test [6] is Peroxisome proliferator-activated receptor gamma/Nuclear receptor coactivator 2 (Homo sapiens, UniProt P37231). As to the kind of experiment: TR-FRET dose response biochemical High Throughput Screening assay for agonists of the steroid receptor coactivator 2 (SRC-2) recruitment by the peroxisome proliferator-activated receptor gamma (PPAR gamma): non-selective agonists. [Related pubchem assays: 1297, 1032 ]. The test is classed as functional. A general note: TR-FRET usually uses a lanthanide donor and a delayed reading to cut background.

The target in test [7] is Peroxisome proliferator-activated receptor gamma/Nuclear receptor coactivator 1 (Homo sapiens, UniProt P37231). Briefly: TR-FRET dose response biochemical High Throughput Screening assay for agonists of the steroid receptor coactivator 1 (SRC-1) recruitment by the peroxisome proliferator-activated receptor gamma (PPAR gamma): non-selective agonists. [Related pubchem assays (depositor defined):AID1300, AID1808, AID504735, AID631]. It is filed as protein assay.

Test [8] can be described thus: Luminescence Cell-Based Dose Response to Identify Activators of Luciferase Translation or Activity in H4-C Neuroglioblastoma Cells. [Related pubchem assays: 1829 (Project Summary), 1814 (Primary HTS)]. The test is classed as functional.
A short description of test [9]: Luminescence Cell-Based Dose Retest to Confirm Inhibitors of Cancer Stem Cells. [Related pubchem assays (depositor defined):AID2717, AID2721]. Particulars: Homo sapiens. The test is classed as functional.
For the next test, the system named is H4. Briefly: Luminescence Cell-Based Dose Response HTS to Identify Activators of 5'UTR Stem-Loop Driven Prion Protein mRNA Translation in H4 Neuroglioblastoma Cells. [Related pubchem assays: 1829 (Project Summary), 1814 (Primary HTS)]. Particulars: Homo sapiens. It is filed as functional.
Test [10] in a line: Luminescence Cell-Based Dose Confirmation to Identify Activators of 5'UTR Stem-Loop Driven Alpha-Synuclein mRNA Translation in H4 Neuroglioblastoma Cells. [Related pubchem assays: 1829 (Project Summary), 1814 (Primary HTS)]. It is filed as functional.
Test [11] can be described thus: Luminescence Cell-Based Dose Response to Identify Activators of 5'UTR Stem-Loop Driven Prion Protein mRNA Translation in H4-C Neuroglioblastoma Cells. [Related pubchem assays: 1829 (Project Summary), 1814 (Primary HTS)]. The test is classed as functional.
The next test has as its target Cytochrome P450 2D6 (Homo sapiens, UniProt P10635).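 Further: CYP2D6 member of a cytochrome P450 panel assay.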
A short description of test [12]: Luminescence Cell-Based Dose Response HTS to Identify Activators of Luciferase Translation or Activity in H4 […] Cells. [Related pubchem assays: 1829 (Project Summary), 1814 (Primary HTS)]. It is filed as functional.
In the next test the target is T4, Hexokinase HKDC1 (Homo sapiens, UniProt Q2TB90).
T4 sequence (Q2TB90 whole entry): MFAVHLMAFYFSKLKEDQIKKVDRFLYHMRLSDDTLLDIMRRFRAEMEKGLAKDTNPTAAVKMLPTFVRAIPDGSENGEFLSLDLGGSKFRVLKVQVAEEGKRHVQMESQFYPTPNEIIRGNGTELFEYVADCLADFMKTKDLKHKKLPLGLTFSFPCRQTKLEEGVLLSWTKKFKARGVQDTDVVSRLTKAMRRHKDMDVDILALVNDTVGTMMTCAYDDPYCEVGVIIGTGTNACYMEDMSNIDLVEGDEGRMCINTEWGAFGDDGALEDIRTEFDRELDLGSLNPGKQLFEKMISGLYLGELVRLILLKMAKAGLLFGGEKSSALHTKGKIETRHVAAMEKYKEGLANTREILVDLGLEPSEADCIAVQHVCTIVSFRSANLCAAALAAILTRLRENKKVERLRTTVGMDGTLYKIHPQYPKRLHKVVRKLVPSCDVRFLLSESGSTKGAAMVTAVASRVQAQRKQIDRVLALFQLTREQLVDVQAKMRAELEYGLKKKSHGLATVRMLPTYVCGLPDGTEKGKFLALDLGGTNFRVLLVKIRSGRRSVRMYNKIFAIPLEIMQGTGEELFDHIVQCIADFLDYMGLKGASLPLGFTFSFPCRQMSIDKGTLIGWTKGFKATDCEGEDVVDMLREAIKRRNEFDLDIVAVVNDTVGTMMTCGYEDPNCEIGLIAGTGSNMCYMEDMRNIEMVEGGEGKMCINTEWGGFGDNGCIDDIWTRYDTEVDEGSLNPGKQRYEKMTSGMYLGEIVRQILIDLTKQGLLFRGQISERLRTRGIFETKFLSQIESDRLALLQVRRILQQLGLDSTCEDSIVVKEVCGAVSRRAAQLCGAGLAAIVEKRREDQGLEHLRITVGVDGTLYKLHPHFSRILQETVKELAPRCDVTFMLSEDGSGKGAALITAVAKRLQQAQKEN
As to the kind of experiment: HKDC1 hexokinase inhibitors, dose response, biochemical, W721R variant (AID 504729). The test is classed as functional.

A short description of test [13]: inhibitors of firefly luciferase expression or activity, dose response, H4 neuroglioma cells, luminescence (AID 1990). It is filed as functional, cell-based.
Test [14] in a line: inhibitors of SNCA 5'UTR-driven reporter translation, confirmation, H4 neuroglioma cells, luminescence (AID 1988). It is filed as functional, cell-based.
A short description of test [15]: Luminescence Cell-Based Dose Response HTS to Identify Inhibitors of 5'UTR Stem-Loop Driven Prion Protein mRNA Translation in H4 Neuroglioblastoma Cells. [Related pubchem assays: 1827 (Project Summary), 1813 (Primary HTS)]. The test is classed as functional.
For test [16], the target named is Potassium voltage-gated channel subfamily KQT member 2 (Rattus norvegicus, UniProt O88943, W236L). Briefly: KCNQ2 channel potentiators, dose response, mechanism study for KCNQ2 potentiator project, cell-based, automated electrophysiology (AID 2603). It is filed as functional.
Sequence of Potassium voltage-gated channel subfamily KQT member 2 (O88943 whole entry W236L): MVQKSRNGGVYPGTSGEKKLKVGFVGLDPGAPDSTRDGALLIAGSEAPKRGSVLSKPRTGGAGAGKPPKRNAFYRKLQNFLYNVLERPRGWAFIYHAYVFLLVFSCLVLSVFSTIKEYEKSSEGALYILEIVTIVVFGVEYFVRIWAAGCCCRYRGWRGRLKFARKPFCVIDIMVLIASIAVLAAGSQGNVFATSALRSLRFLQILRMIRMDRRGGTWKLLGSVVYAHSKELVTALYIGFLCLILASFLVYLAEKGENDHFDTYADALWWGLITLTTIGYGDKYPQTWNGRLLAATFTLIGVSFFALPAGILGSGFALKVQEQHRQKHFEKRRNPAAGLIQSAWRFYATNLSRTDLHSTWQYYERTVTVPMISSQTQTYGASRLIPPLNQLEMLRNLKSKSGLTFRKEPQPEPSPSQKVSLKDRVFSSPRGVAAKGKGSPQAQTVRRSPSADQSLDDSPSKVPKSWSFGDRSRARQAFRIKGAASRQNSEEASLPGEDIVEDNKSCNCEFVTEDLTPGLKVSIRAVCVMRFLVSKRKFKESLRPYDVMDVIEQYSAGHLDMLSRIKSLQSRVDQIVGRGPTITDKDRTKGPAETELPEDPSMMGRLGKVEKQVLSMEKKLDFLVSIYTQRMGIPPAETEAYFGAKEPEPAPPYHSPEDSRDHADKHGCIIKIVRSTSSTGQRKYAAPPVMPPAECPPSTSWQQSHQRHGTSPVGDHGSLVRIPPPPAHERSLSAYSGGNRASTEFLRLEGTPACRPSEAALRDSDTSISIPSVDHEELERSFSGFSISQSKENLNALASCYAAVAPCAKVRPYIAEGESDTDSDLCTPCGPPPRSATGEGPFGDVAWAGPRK

The source made the active and inactive calls. A value given as a limit tells only on which side of the number the result lay.

Sequence of Photoreceptor-specific nuclear receptor (Q9Y5X4 whole entry): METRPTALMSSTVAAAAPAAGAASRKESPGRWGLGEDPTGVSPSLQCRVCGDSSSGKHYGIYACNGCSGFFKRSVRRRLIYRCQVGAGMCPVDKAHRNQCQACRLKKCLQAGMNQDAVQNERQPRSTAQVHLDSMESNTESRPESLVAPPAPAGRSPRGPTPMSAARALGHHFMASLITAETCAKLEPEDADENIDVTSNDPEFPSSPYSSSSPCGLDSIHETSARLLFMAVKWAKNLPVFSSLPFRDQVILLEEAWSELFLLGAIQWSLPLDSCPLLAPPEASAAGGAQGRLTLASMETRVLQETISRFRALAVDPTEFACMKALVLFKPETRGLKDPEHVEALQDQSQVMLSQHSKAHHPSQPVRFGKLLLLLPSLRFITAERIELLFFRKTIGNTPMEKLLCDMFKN
Sequence of Cytochrome P450 2D6 (P10635 whole entry): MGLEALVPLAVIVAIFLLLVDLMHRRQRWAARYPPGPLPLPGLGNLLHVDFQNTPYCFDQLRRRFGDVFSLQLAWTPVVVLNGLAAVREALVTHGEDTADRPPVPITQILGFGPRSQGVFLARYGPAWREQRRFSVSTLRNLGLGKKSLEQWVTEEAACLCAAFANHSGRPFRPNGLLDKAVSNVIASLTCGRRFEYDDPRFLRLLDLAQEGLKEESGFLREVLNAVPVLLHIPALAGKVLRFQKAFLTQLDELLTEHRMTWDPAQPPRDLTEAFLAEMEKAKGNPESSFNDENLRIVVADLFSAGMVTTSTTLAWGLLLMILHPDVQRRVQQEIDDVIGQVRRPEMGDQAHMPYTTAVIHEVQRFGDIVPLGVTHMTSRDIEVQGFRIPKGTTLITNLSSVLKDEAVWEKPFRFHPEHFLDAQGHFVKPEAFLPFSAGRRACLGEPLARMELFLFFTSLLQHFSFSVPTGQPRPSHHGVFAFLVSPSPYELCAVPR

Usually IC50 stands for the concentration that gives 50% inhibition. By EC50 is commonly meant the midpoint of the concentration-response curve. Take `S=c1[nH]c(SCc2ccccc2)nc2ccccc12`: the concentration for half-maximal inhibition (IC50) in test [1] is > 39.8 µM (not active); in test [3], 2.48 µM (active). Besides, the values for the concentration for a half-maximal effect (EC50) (in test [2]; on Streptokinase A) were 227 µM (active) and > 150 µM (not active), respectively.

On to `COc1ccc(NC(=O)CSc2nc3ccccc3c3nc4ccccc4n23)cc1`, for which the 50% effective concentration (EC50) in test [4] was > 100 µM (not active).

As to `O=C(CSc1ncnc2c1oc1ccccc12)c1cccs1`, the concentration for half-maximal inhibition (IC50) in test [1] is reported as > 39.8 µM (not active); in test [3] it was 15.3 µM (not active). The EC50 is > 79.4 µM (not active) in test [5], > 8.82 µM (not active) in [6] and > 26.5 µM (inactive) in test [7].

What is called AC50 is the concentration at which the activity in the assay is half-maximal. For `Cc1sc(NC(=O)C2CCCCC2)c(C#N)c1-c1ccccc1`, the concentration for a half-maximal effect (EC50) is 0.375 µM (active) in [8]; 7.76 µM (active) in the test on H4; 0.174 µM (active) in test [10]; 0.689 µM (active) in test [11]; < 0.1 µM (active) in test [12]. The AC50 was 3.43 µM (active) in test [9] and 7.08 µM (inconclusive) at Cytochrome P450 2D6.

For `O=C(CSc1n[nH]c(-c2cccnc2)n1)Nc1ccc([N+](=O)[O-])cc1Br`, the half-inhibitory concentration (IC50) on Hexokinase HKDC1 was 5.92 µM (active).

Take `O=C(NCCc1ccccc1)c1cnn2c(C(F)F)cc(C3CC3)nc12`: the EC50 in [13], in test [14] and in [15] was > 120 µM (not active) each time. Besides, the IC50 at Hexokinase HKDC1 was 5.5 µM (active).

`C#CCn1/c(=N/C(=O)CSC(C)=O)sc2cc(F)ccc21`: the 50% effective concentration (EC50) in test [16] is 2.97 µM (active).

`Oc1c(Cl)cc(Cl)cc1/C=N/c1nccs1`: in test [16], the 50% effective concentration (EC50) was 11.6 µM (active).
